Results reported in patent US7338941B2, “Pharmaceutical compositions for lowering blood glucose and blood cholesterol levels” (Diakron Pharmaceuticals, Inc., priority 2002, dated 2008).
Where “and” joins values, the source holds several entries; their conditions need not be identical. Equal entries are not always repeated.

System: db/db mice
Assay: Blood-sugar-lowering activity in db/db obese mice (oral, daily for 5 days)
Assay type: in vivo
Settings: for % change in blood glucose after 5 days of treatment (decrease): reduction vs day 0
Protocol: Db/db mice are commonly used as an in vivo model for studying type II diabetes in animals. Db/db (C57BLKS/J-m+/+Lepr^db) obese mice are obtained from Jackson Laboratories (Maine) and maintained in a temperature-controlled (25° C.) facility with a strict 12-h light/dark cycle and given free access to food and water. Mice are fed pelleted rodent chow which is low in fat (4% w/w). Fasting mice are orally administered with isovitexin dissolved in aqueous vehicle containing 50% PEG50% (10 mg/kg body weight) in a total volume of 200 μL or vehicle alone daily for 5 days. Food is removed from mice 4 hours before the collection of blood from the tail vein. Blood is obtained from mice by drawing one drop of blood (˜50 μL) from the tail vein for glucose analysis. Blood glucose is analyzed using a digital glucometer. Db/db obese mice (n=3: test; n=4: vehicle) were treated daily with 200 μL of isovitexin dissolved in an aqueous solution of PEG 50% (10 mg/kg body weight) or vehicle alone for 5 days. Blood glucose was estimated on day 0, one day prior to initiation of the treatment and on day 5, four hours after withdrawal of food. Blood was obtained from mice by drawing one drop of blood (˜50 μL) from the tail vein for glucose analysis. Blood glucose was analyzed using a digital glucometer and performed in duplicate. Blood glucose values are described as mg/dL±SD. The blood glucose levels in the vehicle treated group (n=4) were 446±35 on day 0 and 477±48 on day 5. […] The results are summarized in Tables 1 and 2 below, and FIG. 1.

SMILES: O=c1cc(-c2ccc(O)cc2)oc2cc(O)c([C@@H]3O[C@H](CO)[C@@H](O)[C@H](O)[C@H]3O)c(O)c12 [Isovitexin, 4H-1-benzopyran-4-one, 6-β-D-glucopyranosyl-5,7-dihydroxy-2-(4-hydroxyphenyl)]
- blood glucose levels, group mean on day 0 (db/db mice n=3, isovitexin group before treatment, ± SD): 493 ± 54 mg/dL
- blood glucose levels, group mean on day 5 (db/db mice n=3, oral 10 mg/kg daily for 5 days, ± SD): 404 ± 10 mg/dL
- lowering of blood glucose (in words) (db/db mice, 10 mg/kg body weight): effective in lowering of blood glucose
- blood glucose levels, before treatment (day 0), individual mouse (db/db mice, isovitexin group baseline day 0, one day prior to treatment, ± SD of duplicate): 473 ± 6.36 mg/dL and 554 ± 7.07 mg/dL and 451 ± 21 mg/dL
- blood glucose levels, after treatment with isovitexin (day 5), individual mouse (db/db mice, oral 10 mg/kg daily for 5 days, 4 h after food withdrawal, ± SD of duplicate, 10 mg/kg): 400 ± .71 mg/dL and 415 ± 21.9 mg/dL and 396 ± 2.12 mg/dL
- % change in blood glucose after 5 days of treatment (decrease) (db/db mice, oral 10 mg/kg daily for 5 days, 10 mg/kg): 17.8 ± 7.21 (decrease) %
- % change in blood glucose after 5 days of treatment (decrease) (db/db mice, oral 10 mg/kg daily for 5 days, listed as DP-1032T, 10 mg/kg): ~17.8%
